Experimental data published in US9593305B2, “Differentiation of pluripotent stem cells” (Janssen Biotech, Inc., priority 2008, dated 2017).

System: human embryonic stem cells
Assay: Dose response of activin A and GDF-8, SOX17 intensity (Example 11, Table 11)
Type: cell-based
Conditions: Wnt3a day 1, three days
Procedure: Stock cultures of human embryonic stem cells (1-11 human embryonic stem cell line) were maintained in an undifferentiated, pluripotent state on reduced growth factor […]-coated dishes in MEF conditioned medium with passage on average every four days. Passage was performed by exposing cell cultures to a solution of 1 mg/ml dispase (Invitrogen, Cat #: 17105-041) for 5 to 7 minutes at 37° C. followed by rinsing the monolayer with MEF conditioned culture medium and gentle scraping to recover cell clusters. Clusters were centrifuged at low speed to collect a cell pellet and remove residual dispase. Cell clusters were split at a 1:3 or 1:4 ratio for routine maintenance culture or a 1:1 ratio for immediate assay. All human embryonic stem cell lines were maintained at passage numbers less than 50 and routinely evaluated for normal karyotypic phenotype and for absence of mycoplasma contamination.
Cell clusters used in the assay were evenly resuspended in MEF conditioned medium supplemented with 8 ng/ml bFGF and seeded onto reduced growth factor […]™-coated 96-well Packard VIEWPLATES (PerkinElmer; Cat #6005182) in volumes of 100 μl/well. MEF conditioned medium supplemented with 8 ng/ml bFGF was used for initial plating and expansion. Daily feeding was conducted by aspirating spent culture medium from each well and replacing with an equal volume of fresh medium. Plates were maintained at 37° C., 5% CO2 in a humidified box throughout the duration of assay.
The assay was initiated by aspirating the culture medium from each well and adding back an aliquot (100 μl) of test medium. Test conditions were performed in quadruplicate over a total three-day assay period, feeding on day 1 and day 2 by aspirating and replacing the medium from each well with fresh test medium. Two 12-channel polypropylene basins (Argos technologies, Inc, Cat #: B3135) were used to make the test media containing different concentrations of Activin A (PeproTech; Cat #120-14) or GDF-8 (R&D Systems, Cat #788-G8). Channels numbered 2 through 12 of each basin contained 1 ml assay medium composed of RPMI-1640 medium (Invitrogen; Cat #: 22400) supplemented with 2% Albumin Bovine Fraction V, Fatty Acid Free (FAF BSA) (MP Biomedicals, Inc; Cat #152401) and 8 ng/ml bFGF (PeproTech Inc.; Cat #: 100-18B), and with 20 ng/ml Wnt3a (R&D Systems; Cat #1324-WN/CF) added on day 1, omitted on day 2 and 3. Channel number 1 of each basin contained 1600 ng/ml Activin A or 1600 ng/ml GDF-8, diluted into the same assay medium. One ml of medium was transferred from channel number 1 to channel number 2 and mixed well. A fresh pipette tip was used to transfer one ml of medium from channel number 2 to channel number 3, followed by thorough mixing. The same procedure was repeated in sequence through channel number 11 for each respective basin. Channel number 12 of each basin contained medium without Activin A or GDF-8. By doing this, a series of two-fold test dilutions was created, containing Activin A or GDF-8 at concentrations ranging from 1.6 ng/ml to 1600 ng/ml, for addition to the respective assay wells.
At the conclusion of three days of culture, assay plates were washed once with PBS (Invitrogen; Cat #14190), fixed with 4% paraformaldehyde (Alexis Biochemical; Cat #ALX-350-011) at room temperature for 20 minutes, then washed three times with PBS and permeabilized with 0.5% Triton X-100 (Sigma; Cat #T8760-2) for 20 minutes at room temperature. Cells were washed again three times with PBS and blocked with 4% chicken serum (Invitrogen; Cat #16110082) in PBS for 30 minutes at room temperature. Primary antibody (goat anti-human SOX17; R&D Systems; Cat #AF1924) was diluted 1:100 in 4% chicken serum and added to each well for two hours at room temperature. After washing three times with PBS, Alexa Fluor 488 conjugated secondary antibody (chicken anti-goat IgG; Invitrogen; Cat #A21467) diluted 1:200 in PBS was added to each well. […]

Substance | Normalized SOX17 Intensity, Average (1.56 ng/ml growth factor) [%] | Normalized SOX17 Intensity, Average (3.13 ng/ml growth factor) [%] | Normalized SOX17 Intensity, Average (6.25 ng/ml growth factor) [%] | Normalized SOX17 Intensity, Average (12.50 ng/ml growth factor) [%] | Normalized SOX17 Intensity, Average (25 ng/ml growth factor) [%] | Normalized SOX17 Intensity, Average (50 ng/ml growth factor) [%] | Normalized SOX17 Intensity, Average (100 ng/ml growth factor) [%] | Normalized SOX17 Intensity, Average (200 ng/ml growth factor) [%] | Normalized SOX17 Intensity, Average (400 ng/ml growth factor) [%] | Normalized SOX17 Intensity, Average (800 ng/ml growth factor) [%] | Normalized SOX17 Intensity, Average (1600 ng/ml growth factor) [%] | EC50 (SOX17 intensity, GraphPad Prism) [µg/mL]
GDF-8: growth factor GDF-8, also known as myostatin, member of the TGF-β family | 0.00 | 0.10 | 0.70 | 0.90 | 5.10 | 17.60 | 32.70 | 51.30 | 72.20 | 84.90 | 100.00 | 0.1848
Activin A: recombinant human activin A (PeproTech), TGF-beta family member | 0.10 | 3.00 | 18.40 | 50.90 | 73.10 | 85.20 | 90.70 | 100.00 | 100.00 | 100.00 | 100.00 | 0.0139
